Measurements: ChEMBL document CHEMBL5649166, “RIP3 induces apoptosis independent of pronecrotic kinase activity” (Mol Cell, 2014)

Legend:
[1] = molecular target: T1, cGMP-dependent protein kinase 1 (Homo sapiens) (UniProt Q13976); assay: Inhibition of human PKG1b using LRRASLG as substrate at 1 uM in presence of 32P-ATP by Hotspot assay relative to control; values are per cent of control
T1 sequence (whole entry): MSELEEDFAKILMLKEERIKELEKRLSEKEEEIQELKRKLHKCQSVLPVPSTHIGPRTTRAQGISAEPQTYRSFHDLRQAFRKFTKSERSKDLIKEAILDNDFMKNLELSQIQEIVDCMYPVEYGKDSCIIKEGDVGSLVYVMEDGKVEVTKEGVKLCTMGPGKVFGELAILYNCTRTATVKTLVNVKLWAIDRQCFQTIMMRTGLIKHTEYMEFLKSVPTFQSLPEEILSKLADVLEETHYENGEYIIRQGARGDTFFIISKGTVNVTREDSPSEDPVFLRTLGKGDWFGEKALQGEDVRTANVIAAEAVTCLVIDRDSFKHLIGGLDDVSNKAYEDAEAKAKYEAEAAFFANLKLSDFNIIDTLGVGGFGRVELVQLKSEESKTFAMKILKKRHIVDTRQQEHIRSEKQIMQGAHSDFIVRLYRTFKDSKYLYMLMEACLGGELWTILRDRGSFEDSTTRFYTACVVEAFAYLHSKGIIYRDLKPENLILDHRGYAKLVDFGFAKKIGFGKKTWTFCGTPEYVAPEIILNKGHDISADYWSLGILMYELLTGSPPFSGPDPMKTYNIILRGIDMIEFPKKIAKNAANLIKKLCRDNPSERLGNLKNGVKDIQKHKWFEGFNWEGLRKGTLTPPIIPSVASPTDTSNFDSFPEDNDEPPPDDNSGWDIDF

[2] = molecular target: Receptor-interacting serine/threonine-protein kinase 2 (Homo sapiens) (UniProt O43353); assay: Inhibition of human RIPK2 using myelin basic protein as substrate at 1 uM in presence of 32P-ATP by Hotspot assay relative to control; values are per cent of control
Sequence of Receptor-interacting serine/threonine-protein kinase 2 (Homo sapiens) (O43353 whole entry): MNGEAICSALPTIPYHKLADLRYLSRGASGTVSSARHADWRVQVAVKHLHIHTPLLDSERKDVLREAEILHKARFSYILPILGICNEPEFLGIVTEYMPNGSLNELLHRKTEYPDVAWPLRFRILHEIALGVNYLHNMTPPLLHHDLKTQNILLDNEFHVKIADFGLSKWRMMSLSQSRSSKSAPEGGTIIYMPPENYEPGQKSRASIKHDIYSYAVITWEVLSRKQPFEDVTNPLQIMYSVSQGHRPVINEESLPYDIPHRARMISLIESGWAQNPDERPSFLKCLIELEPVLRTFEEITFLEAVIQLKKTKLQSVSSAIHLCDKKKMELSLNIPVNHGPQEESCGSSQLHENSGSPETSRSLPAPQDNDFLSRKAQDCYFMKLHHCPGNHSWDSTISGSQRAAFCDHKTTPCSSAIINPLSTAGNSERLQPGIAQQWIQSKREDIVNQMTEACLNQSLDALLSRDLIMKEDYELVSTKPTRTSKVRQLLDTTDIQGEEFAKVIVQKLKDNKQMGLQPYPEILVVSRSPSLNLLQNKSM

[3] = molecular target: T2, Protein kinase C epsilon type (Homo sapiens) (UniProt Q02156); assay: Inhibition of human PKCepsilon using ERMRPRKRQGSVRRRV as substrate at 1 uM in presence of 32P-ATP by Hotspot assay relative to control; values are per cent of control
T2 sequence (whole entry): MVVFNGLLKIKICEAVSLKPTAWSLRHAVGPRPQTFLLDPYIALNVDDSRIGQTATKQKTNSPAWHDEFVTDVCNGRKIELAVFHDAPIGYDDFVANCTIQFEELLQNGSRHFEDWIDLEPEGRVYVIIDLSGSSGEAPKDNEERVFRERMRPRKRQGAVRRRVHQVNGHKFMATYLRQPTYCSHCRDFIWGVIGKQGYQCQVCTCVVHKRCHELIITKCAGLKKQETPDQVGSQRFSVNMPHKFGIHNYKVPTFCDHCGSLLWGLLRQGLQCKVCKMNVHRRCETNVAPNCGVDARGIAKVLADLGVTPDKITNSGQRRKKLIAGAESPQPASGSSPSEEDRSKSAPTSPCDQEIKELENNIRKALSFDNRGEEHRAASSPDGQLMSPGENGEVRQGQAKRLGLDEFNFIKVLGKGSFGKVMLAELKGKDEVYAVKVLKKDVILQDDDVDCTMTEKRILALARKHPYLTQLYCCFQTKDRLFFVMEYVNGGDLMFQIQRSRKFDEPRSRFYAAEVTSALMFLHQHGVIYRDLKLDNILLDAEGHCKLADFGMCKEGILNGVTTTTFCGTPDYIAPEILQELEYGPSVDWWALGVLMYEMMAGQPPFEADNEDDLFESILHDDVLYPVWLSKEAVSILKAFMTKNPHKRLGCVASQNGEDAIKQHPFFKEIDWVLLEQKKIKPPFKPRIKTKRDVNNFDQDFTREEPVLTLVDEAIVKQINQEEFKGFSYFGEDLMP

[4] = molecular target: T3, Interleukin-1 receptor-associated kinase 4 (Homo sapiens) (UniProt Q9NWZ3); assay: Inhibition of human IRAK4 using myelin basic protein as substrate at 1 uM in presence of 32P-ATP by Hotspot assay relative to control; values are per cent of control
T3 sequence (whole entry): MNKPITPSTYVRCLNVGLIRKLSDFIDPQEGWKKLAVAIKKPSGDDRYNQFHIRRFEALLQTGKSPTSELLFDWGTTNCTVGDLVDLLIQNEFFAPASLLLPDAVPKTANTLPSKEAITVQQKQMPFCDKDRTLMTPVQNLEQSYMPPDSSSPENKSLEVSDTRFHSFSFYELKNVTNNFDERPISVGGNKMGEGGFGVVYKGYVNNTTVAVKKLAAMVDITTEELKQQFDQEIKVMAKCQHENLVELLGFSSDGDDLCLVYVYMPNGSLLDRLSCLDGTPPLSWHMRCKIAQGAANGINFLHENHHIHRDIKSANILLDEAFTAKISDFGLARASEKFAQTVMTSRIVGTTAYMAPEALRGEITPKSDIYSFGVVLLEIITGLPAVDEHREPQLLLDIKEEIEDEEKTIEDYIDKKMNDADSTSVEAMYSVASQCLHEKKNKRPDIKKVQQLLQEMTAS

[5] = molecular target: Tyrosine-protein kinase Fes/Fps (Homo sapiens) (UniProt P07332); assay: Inhibition of human FES/FPS using poly[Glu:Tyr] (4:1) as substrate at 1 uM in presence of 32P-ATP by Hotspot assay relative to control; values are per cent of control
Sequence of Tyrosine-protein kinase Fes/Fps (Homo sapiens) (P07332 whole entry): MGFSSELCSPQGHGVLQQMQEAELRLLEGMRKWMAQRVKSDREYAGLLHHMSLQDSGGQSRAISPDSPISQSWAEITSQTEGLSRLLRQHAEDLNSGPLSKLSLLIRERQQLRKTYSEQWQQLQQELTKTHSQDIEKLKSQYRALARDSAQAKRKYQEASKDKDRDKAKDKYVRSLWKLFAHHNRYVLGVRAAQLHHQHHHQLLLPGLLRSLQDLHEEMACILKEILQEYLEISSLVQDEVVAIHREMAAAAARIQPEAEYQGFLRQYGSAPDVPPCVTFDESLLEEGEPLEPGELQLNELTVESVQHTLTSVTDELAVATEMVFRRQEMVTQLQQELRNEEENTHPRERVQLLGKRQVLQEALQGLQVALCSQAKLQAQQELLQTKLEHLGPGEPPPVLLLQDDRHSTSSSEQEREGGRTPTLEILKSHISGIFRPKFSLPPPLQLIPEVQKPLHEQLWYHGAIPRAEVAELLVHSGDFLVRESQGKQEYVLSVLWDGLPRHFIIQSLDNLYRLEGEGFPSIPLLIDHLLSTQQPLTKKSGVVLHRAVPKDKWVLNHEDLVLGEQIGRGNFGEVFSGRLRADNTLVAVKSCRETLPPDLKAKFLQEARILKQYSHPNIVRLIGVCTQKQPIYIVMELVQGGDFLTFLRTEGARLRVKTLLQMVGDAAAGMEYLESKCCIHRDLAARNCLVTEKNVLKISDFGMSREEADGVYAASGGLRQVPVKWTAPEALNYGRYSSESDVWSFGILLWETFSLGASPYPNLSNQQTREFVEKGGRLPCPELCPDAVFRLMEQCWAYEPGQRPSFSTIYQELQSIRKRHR

[6] = molecular target: Tyrosine-protein kinase Lyn (Homo sapiens) (UniProt P07948); assay: Inhibition of human LYN using poly[Glu:Tyr] (4:1) as substrate at 1 uM in presence of 32P-ATP by Hotspot assay relative to control; values are per cent of control
Sequence of Tyrosine-protein kinase Lyn (Homo sapiens) (P07948 2-512 limits assumed): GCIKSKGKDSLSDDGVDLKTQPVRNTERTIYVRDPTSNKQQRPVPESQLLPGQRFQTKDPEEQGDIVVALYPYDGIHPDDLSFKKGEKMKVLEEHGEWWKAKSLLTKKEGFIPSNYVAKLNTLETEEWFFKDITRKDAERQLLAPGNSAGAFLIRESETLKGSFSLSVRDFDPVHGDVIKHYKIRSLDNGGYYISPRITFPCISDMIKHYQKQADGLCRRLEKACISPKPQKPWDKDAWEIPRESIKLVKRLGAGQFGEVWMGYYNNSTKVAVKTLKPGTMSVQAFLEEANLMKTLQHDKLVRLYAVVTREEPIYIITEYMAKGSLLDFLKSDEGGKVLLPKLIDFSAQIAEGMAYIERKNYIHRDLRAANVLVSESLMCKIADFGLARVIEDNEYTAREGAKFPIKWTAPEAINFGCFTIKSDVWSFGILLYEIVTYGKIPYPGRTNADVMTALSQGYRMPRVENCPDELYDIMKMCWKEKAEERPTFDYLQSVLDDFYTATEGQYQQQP

[7] = molecular target: Tyrosine-protein kinase FRK (Homo sapiens) (UniProt P42685); assay: Inhibition of human FRK/PTK5 using poly[Glu:Tyr] (4:1) as substrate at 1 uM in presence of 32P-ATP by Hotspot assay relative to control; values are per cent of control
Sequence of Tyrosine-protein kinase FRK (Homo sapiens) (P42685 whole entry): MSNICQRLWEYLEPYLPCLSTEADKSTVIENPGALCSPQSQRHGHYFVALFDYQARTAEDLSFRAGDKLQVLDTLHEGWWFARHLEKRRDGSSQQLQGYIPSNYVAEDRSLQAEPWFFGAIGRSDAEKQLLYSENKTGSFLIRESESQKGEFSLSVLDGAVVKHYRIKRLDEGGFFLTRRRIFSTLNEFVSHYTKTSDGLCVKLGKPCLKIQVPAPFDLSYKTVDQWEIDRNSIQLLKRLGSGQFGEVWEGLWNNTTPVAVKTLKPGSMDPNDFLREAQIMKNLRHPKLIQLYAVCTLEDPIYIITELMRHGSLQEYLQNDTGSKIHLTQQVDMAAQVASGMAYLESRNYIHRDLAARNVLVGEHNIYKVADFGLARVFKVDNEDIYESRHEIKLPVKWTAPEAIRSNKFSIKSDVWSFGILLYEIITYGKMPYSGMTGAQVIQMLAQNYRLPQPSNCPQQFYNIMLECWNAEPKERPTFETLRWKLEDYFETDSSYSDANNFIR

Q: `CC(C)S(=O)(=O)c1ccc2nccc(Nc3ccc4scnc4c3)c2c1` was tested. Which residual activity [1] did it give?
A: 97.5%

Q: What about the residual activity [2] of the same molecule?
A: 20.7%

Q: What about the residual activity [3] of the same molecule?
A: 96%

Q: What about the residual activity [4] of the same molecule?
A: 97.5%

Q: What about the residual activity [5] of the same molecule?
A: 86.1%

Q: What about the residual activity [6] of the same molecule?
A: 20%

Q: And the residual activity [7]?
A: 33.5%

Q: `Cc1cc(-c2cnc(N)c3c(-c4ccc5scnc5c4)csc23)n(C)n1` was tested. Which residual activity [1] did it give?
A: 85%

Q: What about the residual activity [2] of the same molecule?
A: 13.6%

Q: And the residual activity [3]?
A: 103%

Q: And the residual activity [4]?
A: 99.7%

Q: And the residual activity [5]?
A: 95%

Q: What about the residual activity [6] of the same molecule?
A: 17%

Q: What about the residual activity [7] of the same molecule?
A: 65.3%

Q: Which residual activity [1] does the source give for `CNC(=O)c1ccc2c(c1)ncn2-c1ccc(CC(=O)OC(C)(C)C)cc1` here?
A: 96.1%

Q: And the residual activity [2]?
A: 82.3%

Q: What about the residual activity [3] of the same molecule?
A: 96.7%

Q: And the residual activity [4]?
A: 102%

Q: And the residual activity [5]?
A: 98.1%

Q: And the residual activity [6]?
A: 73.5%

Q: And the residual activity [7]?
A: 90.8%
